Counter-ions that a name gives are not always drawn.
Tests used:
[1] = tested on: E. coli BW25113; experiment: Assay 4: boosting of antibiotic activity by EPI example 37 in E. coli; format: cell-based, Escherichia coli; settings: MIC of the named antibiotic boosted by 100 μM example 37
From the text: (§1) Escherichia coli BW25113 (CGSC 7636) and its derivatives E. coli ΔtolC (JW5503-1, ΔtolC732::kan, CGSC 11430), E. coli ΔacrA (JW0452-3, ΔacrA748::kan, CGSC 11843) and E. coli ΔacrB (JW0451-2, ΔacrB747::kan, CGSC 8609) were obtained from E. coli Genetic Stock Center (CGSC, New Haven, Connecticut) and originated from the Keio Collection (Baba T et al, Mol Sys Biol, 2006). Klebsiella pneumoniae (LMG 2095/ATCC 13883) and K. pneumoniae (ATCC43816), Pseudomonas aeruginosa (PAO1), Acinetobacter baumannii (LMG 1025, ATCC 17978), were obtained from ATCC or BCCM/LMG Bacteria Collection. All bacteria were grown and tested in cation-adjusted Mueller-Hinton broth (CAMHB; BD Difco) at 37° C. For conservation, log phase bacteria were frozen (−80° C.) in CAMHB supplemented with 15% glycerol.
(§2) Measurement of the Impact of EPI Example 37 on the Boosting of Antibiotic Activity in E. coli, A. baumannii, K. pneumoniae and P. aeruginosa.
(§3) Bacterial suspensions were then prepared in CAMHB from a growing pre-culture, (E. coli [OD600=0.001], A. baumannii [OD600=0.001], K. pneumoniae [OD600=0.001] and P. aeruginosa [OD600=0.001]), and added to the microplate using a ViaFill. Microplate containing bacterial cultures were then grown (5 h or 24 h, 37° C.) and bacterial viability determined by either resazurin reduction or OD600.

[2] = tested on: K. pneumoniae ATCC43816; experiment: Assay 4: boosting of antibiotic activity by EPI example 37 in K. pneumoniae ATCC43816; format: cell-based, Klebsiella pneumoniae; settings: MIC of the named antibiotic boosted by 100 μM example 37
From the text: as §1, §2, §3

[3] = tested on: K. pneumoniae ATCC13883; experiment: Assay 4: boosting of antibiotic activity by EPI example 37 in K. pneumoniae ATCC13883; format: cell-based, Klebsiella pneumoniae; settings: MIC of the named antibiotic boosted by 100 μM example 37
From the text: as §1, §2, §3

[4] = tested on: E. coli BW25113; experiment: Assay 1: growth inhibition of E. coli by sub-inhibitory pyridomycin in combination with examples (resazurin reduction); format: cell-based, Escherichia coli; settings: read-out: EC50 on E. coli with 8 μg/mL of pyridomycin, 8 μg/mL pyridomycin, 5 h, 37° C.
Method in brief: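 E. coli BW25113 at OD600 0.0004–0.001 was grown in CAMHB at 37 °C. Viability was read by resazurin reduction fluorescence (Ex 530/Em 590 nm). EC50 is the concentration preventing 50% of resazurin turnover relative to untreated bacteria.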

[5] = tested on: A. baumannii LMG 1025 (ATCC 17978); experiment: Assay 2: growth inhibition of A. baumannii by sub-inhibitory chloramphenicol in combination with examples (resazurin reduction); format: cell-based, Acinetobacter baumannii; settings: read-out: EC90 on A. baumannii with 10 μg/mL of chloramphenicol, 10 μg/mL chloramphenicol, 5 h or 24 h, 37° C.
From the text: as §1
Measurement of Growth Inhibition of A. baumannii Strains by Sub Inhibitory Concentrations of Chloramphenicol in Combination with Examples 1-137
(§4) For the evaluation of the dose dependent activity of examples 1-137, their ability to boost the antibacterial activity of sub-inhibitory concentrations chloramphenicol was determined. Briefly, A. baumannii LMG 1025 (ATCC 17978) were diluted from frozen or growing stocks to an OD600 of 0.001 in CAMHB. The bacterial suspension was then used as such (no-antibiotic control to evaluate EPI activity), or spiked with chloramphenicol at a final concentration of 10 μg/mL. Bacteria were then added to microplates carrying serial dilutions of the compounds examples 1-137, and incubated for (5 h or 24 h, 37° C.). Bacterial viability was evaluated using the resazurin reduction assay, and measured by fluorescence (POLARstar Omega, BMG Labtech: Ex: 530 nm Em: 590 nm). […] were defined as the compound concentration that prevented 90% of resazurin turnover compared to the non-treated bacteria.

[6] = tested on: A. baumannii LMG 1025 (ATCC 17978); experiment: Assay 3: growth inhibition of A. baumannii by sub-inhibitory novobiocin in combination with examples (resazurin reduction); format: cell-based, Acinetobacter baumannii
From the text: as §1
Measurement of growth Inhibition of A. baumannii strains by sub Inhibitory concentrations of novobiocin In combination with examples 1-137
as §4, with “concentrations novobiocin” for “concentrations chloramphenicol”, “such (no—antibiotic” for “such (no-antibiotic”, “with novobiocin” for “with chloramphenicol”, “of 5” for “of 10”

[7] = 5 μg/mL novobiocin, 5 h or 24 h, 37° C., read-out: EC90 on A. baumannii with 5 μg/mL of novobiocin

Row | Structure (SMILES) | EC50 [4] [µM] | EC90 [6, 7] [µM] | other results
1 | CC1(C)S[C@@H]2[C@H](NC(=O)[C@H](N)c3ccccc3)C(=O)N2[C@H]1C(=O)O [Ampicillin (AMP), Ampicillin] | – | – | E. coli BW25113 Fold Boosted MIC By 100 μM example 37 [1]: * (* = 2-3.9 fold)
2 | CO/N=C(\C(=O)N[C@@H]1C(=O)N2C(C(=O)[O-])=C(C[N+]3(C)CCCC3)CS[C@H]12)c1csc(N)n1 [Cefepime (CEP), Cefepime] | – | – | K. pneumoniae ATCC43816 Fold Boosted MIC By 100 μM example 37 [2]: * (* = 2-3.9 fold)
3 | O=C(O)c1cn(C2CC2)c2cc(N3CCNCC3)c(F)cc2c1=O [Ciprofloxacin (CIP), Ciprofloxacin] | – | – | K. pneumoniae ATCC43816 Fold Boosted MIC By 100 μM example 37 [2]: *** (*** = 8 fold +); E. coli BW25113 Fold Boosted MIC By 100 μM example 37 [1]: *** (*** = 8 fold +); K. pneumoniae ATCC13883 Fold Boosted MIC By 100 μM example 37 [3]: *** (*** = 8 fold +)
4 | Brc1cnc(N[C@H]2[C@@H]3CNC[C@@H]32)c2ccccc12 [Example 58, N-[(1R,5S)-3-azabicyclo[3.1.0]hexan-6-yl]-4-bromo-isoquinolin-1-amine;hydrochloride] | 5 to 100 | 100 to 500 | EC90 [5]: 100 to 500 µM
5 | NCc1cccc(-c2ccc3nc(N4CCNCC4)c(Cl)cc3c2)c1 [Example 66, [3-(3-chloro-2-piperazin-1-yl-6-quinolyl)phenyl]methanamine;dihydrochloride] | < 5 | 5 to 100 | EC90 [5]: 5 to 100 µM
6 | CNCc1cccc(-c2ccc3nc(N4CCNCC4)c(Cl)cc3c2)c1 [Example 109, 1-[3-(3-chloro-2-piperazin-1-yl-6-quinolyl)phenyl]-N-methyl-methanamine;dihydrochloride] | < 5 | 5 to 100 | EC90 [5]: 5 to 100 µM
7 | NCc1ccccc1-c1ccc2nc(N3CCNCC3)c(Cl)cc2c1 [Example 111, [2-(3-chloro-2-piperazin-1-yl-6-quinolyl)phenyl]methanamine;dihydrochloride] | < 5 | 5 to 100 | –
8 | C[C@H](N)c1cccc(-c2ccc3nc(N4CCNCC4)c(Cl)cc3c2)c1 [Example 112, (1S)-1-[3-(3-chloro-2-piperazin-1-yl-6-quinolyl)phenyl]ethanamine; dihydrochloride] | < 5 | 5 to 100 | –
9 | NCCc1ccc(-c2ccc3nc(N4CCNCC4)c(Cl)cc3c2)cc1 [Example 116, 2-[4-(3-chloro-2-piperazin-1-yl-6-quinolyl)phenyl]ethanamine;dihydrochloride] | < 5 | 5 to 100 | –
10 | Cc1c(CN)cccc1-c1ccc2nc(N3CCNCC3)c(Cl)cc2c1 [Example 117, [3-(3-chloro-2-piperazin-1-yl-6-quinolyl)-2-methyl-phenyl]methanamine;dihydrochloride] | < 5 | 5 to 100 | –
11 | COc1c(CN)cccc1-c1ccc2nc(N3CCNCC3)c(Cl)cc2c1 [Example 118, [3-(3-chloro-2-piperazin-1-yl-6-quinolyl)-2-methoxy-phenyl]methanamine;dihydrochloride] | < 5 | 5 to 100 | –
12 | Cc1ccc(CN)cc1-c1ccc2nc(N3CCNCC3)c(Cl)cc2c1 [Example 119, [3-(3-chloro-2-piperazin-1-yl-6-quinolyl)-4-methyl-phenyl]methanamine;dihydrochloride] | < 5 | 5 to 100 | –
13 | COc1ccc(CN)cc1-c1ccc2nc(N3CCNCC3)c(Cl)cc2c1 [Example 120, [3-(3-chloro-2-piperazin-1-yl-6-quinolyl)-4-methoxy-phenyl]methanamine;dihydrochloride] | < 5 | 5 to 100 | –
14 | NCc1ccc(Cl)c(-c2ccc3nc(N4CCNCC4)c(Cl)cc3c2)c1 [Example 121, [4-chloro-3-(3-chloro-2-piperazin-1-yl-6-quinolyl)phenyl]methanamine;dihydrochloride] | < 5 | 5 to 100 | –
15 | Cc1cc(CN)cc(-c2ccc3nc(N4CCNCC4)c(Cl)cc3c2)c1 [Example 123, [3-(3-chloro-2-piperazin-1-yl-6-quinolyl)-5-methyl-phenyl]methanamine;dihydrochloride] | < 5 | 5 to 100 | –
16 | COc1cc(CN)cc(-c2ccc3nc(N4CCNCC4)c(Cl)cc3c2)c1 [Example 124, [3-(3-chloro-2-piperazin-1-yl-6-quinolyl)-5-methoxy-phenyl]methanamine;dihydrochloride] | < 5 | 5 to 100 | –
17 | NCc1cc(-c2ccc3nc(N4CCNCC4)c(Cl)cc3c2)cc(C(F)(F)F)c1 [Example 125, [3-(3-chloro-2-piperazin-1-yl-6-quinolyl)-5-(trifluoromethyl)phenyl]methanamine;dihydrochloride] | < 5 | – | EC90 ([6]; read-out: EC90 on A. baumannii with 5 μg/mL of novobiocin, 5 μg/mL novobiocin, 5 h or 24 h, 37° C.): 5 to 100 µM
18 | Cc1ccc(-c2ccc3nc(N4CCNCC4)c(Cl)cc3c2)cc1CN [Example 126, [5-(3-chloro-2-piperazin-1-yl-6-quinolyl)-2-methyl-phenyl]methanamine;dihydrochloride] | < 5 | 5 to 100 | –
19 | COc1ccc(-c2ccc3nc(N4CCNCC4)c(Cl)cc3c2)cc1CN [Example 127, [5-(3-chloro-2-piperazin-1-yl-6-quinolyl)-2-methoxy-phenyl]methanamine;dihydrochloride] | < 5 | 5 to 100 | –
20 | NCc1cc(-c2ccc3nc(N4CCNCC4)c(Cl)cc3c2)ccc1Cl [Example 128, [2-chloro-5-(3-chloro-2-piperazin-1-yl-6-quinolyl)phenyl]methanamine;dihydrochloride] | < 5 | 5 to 100 | –
21 | NCc1cc(-c2ccc3nc(N4CCNCC4)c(Cl)cc3c2)ccc1C(F)(F)F [Example 129, [5-(3-chloro-2-piperazin-1-yl-6-quinolyl)-2-(trifluoromethyl)phenyl]methanamine;dihydrochloride] | < 5 | 5 to 100 | –
22 | NCc1cc(-c2ccc3nc(N4CCNCC4)c(Cl)cc3c2)ccc1F [Example 130, [5-(3-chloro-2-piperazin-1-yl-6-quinolyl)-2-fluoro-phenyl]methanamine;dihydrochloride] | < 5 | 5 to 100 | EC90 [5]: 5 to 100 µM
23 | Clc1cc2cc(-c3cccc4c3CCNC4)ccc2nc1N1CCNCC1 [Example 133, 3-chloro-2-piperazin-1-yl-6-(1,2,3,4-tetrahydroisoquinolin-5-yl)quinoline;dihydrochloride] | < 5 | 5 to 100 | –
24 | Clc1cc2cc(-c3ccc4c(c3)CNC4)ccc2nc1N1CCNCC1 [Example 135, 3-chloro-6-isoindolin-5-yl-2-piperazin-1-yl-quinoline;dihydrochloride] | < 5 | 5 to 100 | –
25 | CN(C)[C@@H]1C(O)=C(C(N)=O)C(=O)[C@@]2(O)C(O)=C3C(=O)c4c(O)cccc4[C@@](C)(O)[C@H]3C[C@@H]12 [Tetracycline (TET), Tetracycline] | – | – | E. coli BW25113 Fold Boosted MIC By 100 μM example 37 [1]: * (* = 2-3.9 fold); K. pneumoniae ATCC13883 Fold Boosted MIC By 100 μM example 37 [3]: * (* = 2-3.9 fold)
